# Assays:
# CCRF-CEM = experiment: NCI cytotoxicity screen, Leukemia panel; format: cell-based; details: Homo sapiens, single dose 10 µM, negative = lethal, read-out: Percent growth inhibition
# Method: (§1) Cytotoxicity was performed at National Cancer Institute (NCI), Bethesda, USA as per their protocols.
# HL-60(TB) = experiment: NCI cytotoxicity screen, Leukemia panel; format: cell-based; details: Homo sapiens, HL-60, HL-60(TB); single dose 10 µM; negative = lethal; read-out: Percent growth inhibition
# Method: as §1
# K-562 = experiment: NCI cytotoxicity screen, Leukemia panel; format: cell-based; details: Homo sapiens, K562; K-562; single dose 10 µM; negative = lethal; read-out: Percent growth inhibition
# Method: as §1
# MOLT-4 = experiment: NCI cytotoxicity screen, Leukemia panel; format: cell-based; details: Homo sapiens, MOLT-4, MOLT-4; single dose 10 µM; negative = lethal; read-out: Percent growth inhibition
# Method: as §1
# RPMI-8226 = experiment: NCI cytotoxicity screen, Leukemia panel; format: cell-based; details: Homo sapiens; RPMI-8226; single dose 10 µM; negative = lethal; read-out: Percent growth inhibition
# Method: as §1
# SR = experiment: NCI cytotoxicity screen, Leukemia panel; format: cell-based; details: Homo sapiens, single dose 10 µM, negative = lethal, read-out: Percent growth inhibition
# Method: as §1
# SF-268 = experiment: NCI cytotoxicity screen, CNS Cancer panel; format: cell-based; details: Homo sapiens, single dose 10 µM, negative = lethal, read-out: Percent growth inhibition
# Method: as §1
# SF-295 = experiment: NCI cytotoxicity screen, CNS Cancer panel; format: cell-based; details: Homo sapiens, single dose 10 µM, negative = lethal, read-out: Percent growth inhibition
# Method: as §1
# SF-539 = experiment: NCI cytotoxicity screen, CNS Cancer panel; format: cell-based; details: Homo sapiens, single dose 10 µM, negative = lethal, read-out: Percent growth inhibition
# Method: as §1
# SNB-19 = experiment: NCI cytotoxicity screen, CNS Cancer panel; format: cell-based; details: Homo sapiens; SNB-19; single dose 10 µM; negative = lethal; read-out: Percent growth inhibition
# Method: as §1
# SNB-75 = experiment: NCI cytotoxicity screen, CNS Cancer panel; format: cell-based; details: Homo sapiens, single dose 10 µM, negative = lethal, read-out: Percent growth inhibition
# Method: as §1
# U251 = experiment: NCI cytotoxicity screen, CNS Cancer panel; format: cell-based; details: Homo sapiens, U-251; U251; single dose 10 µM; negative = lethal; read-out: Percent growth inhibition
# Method: as §1
# OVCAR-4 = experiment: NCI cytotoxicity screen, Ovarian Cancer panel; format: cell-based; details: Homo sapiens; OVCAR-4; single dose 10 µM; negative = lethal; read-out: Percent growth inhibition
# Method: as §1
# OVCAR-5 = experiment: NCI cytotoxicity screen, Ovarian Cancer panel; format: cell-based; details: Homo sapiens, single dose 10 µM, negative = lethal, read-out: Percent growth inhibition
# Method: as §1
# OVCAR-3 = experiment: NCI cytotoxicity screen, Ovarian Cancer panel; format: cell-based, human; details: Homo sapiens; OVCAR-3; single dose 10 µM; negative = lethal; read-out: Percent growth inhibition
# Method: as §1
# DU-145 = experiment: NCI cytotoxicity screen, Prostate Cancer panel; format: cell-based, human; details: Homo sapiens, single dose 10 µM, negative = lethal, read-out: Percent growth inhibition
# Method: as §1
# PC-3 = experiment: NCI cytotoxicity screen, Prostate Cancer panel; format: cell-based, human; details: Homo sapiens, single dose 10 µM, negative = lethal, read-out: Percent growth inhibition
# Method: as §1
SMILES,inhibition at 10 µM (CCRF-CEM) [%],inhibition at 10 µM (HL-60(TB)) [%],inhibition at 10 µM (K-562) [%],inhibition at 10 µM (MOLT-4) [%],inhibition at 10 µM (RPMI-8226) [%],inhibition at 10 µM (SR) [%],inhibition at 10 µM (SF-268) [%],inhibition at 10 µM (SF-295) [%],inhibition at 10 µM (SF-539) [%],inhibition at 10 µM (SNB-19) [%],inhibition at 10 µM (SNB-75) [%],inhibition at 10 µM (U251) [%],inhibition at 10 µM (OVCAR-4) [%],inhibition at 10 µM (OVCAR-5) [%],inhibition at 10 µM (OVCAR-3) [%],inhibition at 10 µM (DU-145) [%],inhibition at 10 µM (PC-3) [%],melting point [°C]
"c1cn2cc(-c3ccc4c(c3)ncn4C3CCCCC3)nc(-c3ccc4c(c3)ncn4C3CCCCC3)c2n1 [Compound 30, 6,8-bis(1-cyclohexyl-1H-benzo[d]imidazol-5-yl)imidazo[1,2-a]pyrazine]",35.1,32.9,47.2,43.6,52.2,17.1,4.85,10.4,25.4,5.02,6.25,29.7,< 1,< 1,< 1,6.22,27.9,205 to 209
"c1ccc2c(-c3cn4ccnc4c(-c4ccc5c(c4)ncn5C4CCCCC4)n3)cccc2c1 [Compound 12, 8-(1-cyclohexyl-1H-benzo[d]imidazol-5-yl)-6-(naphthalen-1-yl)imidazo[1,2-a]pyrazine]",27.2,~50,38,~50,38.2,10.9,11.8,7.88,7.72,16.7,9.15,27.9,15,< 1,4.29,6.09,13.3,199 to 202
